One test has as its target p70S6K (Homo sapiens, UniProt P23443). Put plainly: Luciferase-coupled chemiluminescence kinase assay (ATP consumption). The class given is biochemical. Summed up: (§1)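 Activity is read as ATP depletion: luciferase-luciferin reagent added after a 3 h ambient-temperature kinase reaction, with total ATP use limited to 25-60%. Before ATP addition, 2.5-5 nM kinase and compound were preincubated 30 min in Tris pH 7.5/MgCl2/TX-100/DTT buffer; […].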

The next test has as its target AktK (Homo sapiens, UniProt P31749). The test is described as above. The class given is biochemical. The settings on record: read-out: AKT-1 IC50. Summed up: as §1

pIC50: −log10 of the molar value.

The pIC50 is the negative decadic logarithm of the IC50, by convention in mol/L.

Sequence of AktK (P31749 whole entry): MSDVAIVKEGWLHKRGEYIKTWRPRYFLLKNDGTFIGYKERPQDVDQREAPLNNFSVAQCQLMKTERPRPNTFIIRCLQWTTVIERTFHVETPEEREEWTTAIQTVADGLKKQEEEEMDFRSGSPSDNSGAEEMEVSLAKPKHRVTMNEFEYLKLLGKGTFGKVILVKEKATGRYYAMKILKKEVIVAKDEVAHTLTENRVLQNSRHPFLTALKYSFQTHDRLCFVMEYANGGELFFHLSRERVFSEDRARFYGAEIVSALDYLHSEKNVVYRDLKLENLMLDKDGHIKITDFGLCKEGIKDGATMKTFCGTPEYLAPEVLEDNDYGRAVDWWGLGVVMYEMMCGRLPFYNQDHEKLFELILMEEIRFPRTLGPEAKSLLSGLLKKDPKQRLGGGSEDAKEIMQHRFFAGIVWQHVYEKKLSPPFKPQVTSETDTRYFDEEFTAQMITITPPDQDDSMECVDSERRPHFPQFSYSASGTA
Sequence of p70S6K (P23443 whole entry): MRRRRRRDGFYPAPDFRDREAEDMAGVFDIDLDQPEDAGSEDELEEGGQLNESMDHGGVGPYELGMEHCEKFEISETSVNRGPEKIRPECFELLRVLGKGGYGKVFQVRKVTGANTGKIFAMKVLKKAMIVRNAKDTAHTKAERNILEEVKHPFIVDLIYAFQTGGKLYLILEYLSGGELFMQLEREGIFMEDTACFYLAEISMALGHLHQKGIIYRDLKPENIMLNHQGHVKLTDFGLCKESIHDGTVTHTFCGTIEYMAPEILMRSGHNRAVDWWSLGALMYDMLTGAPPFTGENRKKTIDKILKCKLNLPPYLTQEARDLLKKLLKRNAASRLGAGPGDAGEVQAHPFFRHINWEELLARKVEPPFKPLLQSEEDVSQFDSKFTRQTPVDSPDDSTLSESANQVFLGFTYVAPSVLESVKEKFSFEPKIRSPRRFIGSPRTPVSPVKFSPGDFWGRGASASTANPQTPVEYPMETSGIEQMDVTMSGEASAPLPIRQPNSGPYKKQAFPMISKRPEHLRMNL

For the compound `CCc1n[nH]c2ncnc(N3CCN(c4cc(Cl)c(O)cc4C)CC3)c12` [Entry 381, 2-chloro-4-[4-(3-ethyl-1H-pyrazolo[3,4-d]pyrimidin-4-yl)piperazin-1-yl]-5-methylphenol], the pIC50 against p70S6K is greater than 7.00; at AktK, 5.00 to 6.00.
The like results for `CCc1n[nH]c2ncnc(N3CCN(c4cccc(Cl)c4)C(C(=O)NC4CCN(C)CC4)C3)c12` (stereo not shown) [Entry 382, 1-(3-chlorophenyl)-4-(3-ethyl-1H-pyrazolo[3,4-d]pyrimidin-4-yl)-N-(1-methylpiperidin-4-yl)piperazine-2-carboxamide] were, in that order, 5.00 to 6.00 and no more than 5.00.
In the same order, the values of `CCc1n[nH]c2ncnc(N3CCN(c4cccc(Cl)c4)C(C(=O)NCCN4CCOCC4)C3)c12` (stereo not shown) [Entry 383, 1-(3-chlorophenyl)-4-(3-ethyl-1H-pyrazolo[3,4-d]pyrimidin-4-yl)-N-(2-morpholin-4-ylethyl)piperazine-2-carboxamide] are 5.00 to 6.00 and no more than 5.00.
The like results for `CCc1n[nH]c2ncnc(N3CCN(c4cc(Cl)cc(OCCN(C)C)c4OC)CC3)c12` [Entry 384, 2-{[5-chloro-3-[4-(3-ethyl-1H-pyrazolo[3,4-d]pyrimidin-4-yl)piperazin-1-yl]-2-(methyloxy)phenyl]oxy}-N,N-dimethylethanamine] were, in that order, greater than 7.00 and 5.00 to 6.00.
As for `CCc1n[nH]c2ncnc(N3CCN(c4cc(Cl)cc(C#CCN(C)C)c4C)CC3)c12` [Entry 385, 3-{5-chloro-3-[4-(3-ethyl-1H-pyrazolo[3,4-d]pyrimidin-4-yl)piperazin-1-yl]-2-methylphenyl}-N,N-dimethylprop-2-yn-1-amine], the pIC50 was greater than 7.00 on p70S6K and 5.00 to 6.00 at AktK.
In the same order, the values of `CCc1n[nH]c2ncnc(N3CCN(c4cc(Cl)cc(NCCN(C)C)c4C)CC3)c12` [Entry 386, N′-{5-chloro-3-[4-(3-ethyl-1H-pyrazolo[3,4-d]pyrimidin-4-yl)piperazin-1-yl]-2-methylphenyl}-N,N-dimethylethane-1,2-diamine] are greater than 7.00 and 6.00 to 7.00.
The like results for `Cc1ccc(Cl)cc1N1CCN(c2ncnc3[nH]nc(/C=C/C(=O)OC(C)(C)C)c23)CC1` [Entry 387, 1,1-dimethylethyl (2E)-3-{4-[4-(5-chloro-2-methylphenyl)piperazin-1-yl]-1H-pyrazolo[3,4-d]pyrimidin-3-yl}prop-2-enoate] were, in that order, 6.00 to 7.00 and 5.00 to 6.00.
The like results for `CCc1n[nH]c2ncnc(N3CCN(c4cc(Cl)c(OCCCN(C)C)cc4C)CC3)c12` [Entry 388, 3-({2-chloro-4-[4-(3-ethyl-1H-pyrazolo[3,4-d]pyrimidin-4-yl)piperazin-1-yl]-5-methylphenyl}oxy)-N,N-dimethylpropan-1-amine] were, in that order, 6.00 to 7.00 and 5.00 to 6.00.
In the case of `CCc1n[nH]c2ncnc(N3CCN(c4cc(Cl)c(OCCN(C)C)cc4C)CC3)c12` [Entry 389, 2-({2-chloro-4-[4-(3-ethyl-1H-pyrazolo[3,4-d]pyrimidin-4-yl)piperazin-1-yl]-5-methylphenyl}oxy)-N,N-dimethylethanamine], the values for the pIC50 against p70S6K and on AktK were 6.00 to 7.00 and 5.00 to 6.00, respectively.
The like results for `CCc1n[nH]c2ncnc(N3CCN(c4cc(Cl)c(OC)cc4C)CC3)c12` [Entry 390, 4-{4-[5-chloro-2-methyl-4-(methyloxy)phenyl]piperazin-1-yl}-3-ethyl-1H-pyrazolo[3,4-d]pyrimidine] were, in that order, greater than 7.00 and 5.00 to 6.00.
The like results for `Cc1ccc(Cl)cc1N1CCN(c2ncnc3[nH]nc(N4CCN(C)CC4)c23)CC1` [Entry 391, 4-[4-(5-chloro-2-methylphenyl)piperazin-1-yl]-3-(4-methylpiperazin-1-yl)-1H-pyrazolo[3,4-d]pyrimidine] were, in that order, 5.00 to 6.00 and 5.00 to 6.00.

For the origin of these results see US8076338B2, “Kinase modulators and methods of use” (Exelixis, Inc., priority 2004, dated 2011).
